PMC4010497, “Synthesis and Evaluation of Fluorine-Substituted Phenyl Acetate Derivatives as Ultra-Short Recovery Sedative/Hypnotic Agents” (PLoS ONE, 2014)

Columns and labels:
mice [1] = assay: animal or person; type: in vivo; settings: mice
Description: (§1) All tests were performed during the light period. Groups of mice, rats and rabbits were injected intravenously (lateral tail vein) over 10 s with each dose of test compound, placed in separate boxes to reduce external stimuli and assessed for the loss of righting reflex. Dosing was performed using mg/kg scheme. A set of dose levels was chosen, and depending on whether the loss of righting reflex was observed, extra doses were introduced to provide data for the loss of righting reflex over a narrow dose range to allow potency calculations. From the percentage of mice, rats and rabbits in each group showing loss of righting reflex for ≥30 s, a probit analysis (SAS Institute) was performed to obtain an HD50 for each compound with 95% confidence limits.
(§2) Immediately following the injection, the mice, rats and rabbits were tested for loss of righting reflex. […] Once a loss was observed, the interval between the loss of righting reflex and the return to righting reflex was recorded. The anesthetized animals recovered righting reflexes spontaneously. To compare the duration of LORR of each compound at equipotent doses, groups of mice, rats and rabbits were injected with each compound at 2× HD50 over 10 s.
(§3) Time to walk was the time required after righting before mice and rabbits walked from the center to the periphery of a 30-cm diameter dise.
(§4) The rotarod test was conducted to evaluate the recovery to the motor coordination. Before the LORR test, mice were trained for 2 consecutive days. Trained mice could maintain their balance on rod for more than 2 mins. After the mice could walk from the center to the periphery of a 30-cm diameter dise, they were put on the rotarod. Mice were classified as behavioral recovery when, on being placed on the rod, they could maintain their balance for 20 s. The time to behavioral recovery was the time required after mice walked from the centre to the periphery of a 30-cm diameter disc before they could maintain their balance on rod for 20 s.

in vivo = settings: mouse, in vivo; mice, 95% confidence limits
Description: (§5) The LD50 was determined in mice, rats, and rabbits and the TI was calculated as LD50/HD50.

mice [2] = assay: in vivo; settings: LD50/HD50
Description: as §5

rat [3] = type: in vivo
Description: as §1, §2, §3, §4

rat [4] = assay: Therapeutic index (LD50/HD50) in rat; type: in vivo
Description: as §5

rabbits [5] = assay: Hypnotic potency and recovery after IV bolus in rabbits; type: in vivo, rabbit
Description: as §1, with “calculations.” for “calculations. From the percentage of mice, rats and rabbits in each group showing loss of righting reflex for ≥30 s, a probit analysis (SAS Institute) was performed to obtain an HD50 for each compound with 95% confidence limits.”
as §2, with “The anesthetized animals recovered righting reflexes spontaneously.” left out
as §3

rabbits [6] = assay: Therapeutic index (LD50/HD50) in rabbits; type: in vivo, rabbit
Description: as §5

rabbits [7] = assay: Hypnosis in response to IV infusion in rabbits; type: in vivo, rabbit
Description: Induction of hypnosis in rabbits was achieved using 2× HD50 dose of test compound, and immediately after induction, infusion via the tail vein was commenced at half the HD50 dosage per min. the infusion rate was maintained for 20 min or 1 h or 3 h later. The depth of hypnosis was monitored by the magnitude of a withdrawal reflex to intermittent paw pinch provided by a pair of forceps.

GABAA receptor = assay: GABAA radioligand binding assay ([3H]EBOB); settings: 50 µM compound, 0.5 nM [3H]EBOB, rat frontoparietal cortex
Description: All the new compounds were dissolved in 5% DMSO.
Specific binding was determined in the presence of compounds.
Membrane suspensions were thawed and centrifuged in incubation buffer at 10,000×g for 10 min and washed by a similar centrifugation. For displacement studies, membrane suspensions (5 mg original wet wt./ml) were incubated with 0.5 nM [^3H]EBOB ([…], Perkin Elmer Life Sciences, Boston, MA, USA) in the absence or presence of 50 µM of new compounds or reference drug for 2 h at 25°C. Nonspecific binding was determined in the presence of 10 µM Bicuculline. Bicuculline and picrotoxin were frequently used to determine the nonspecific binding when [3H]EBOB as radioligand [17]. Triplicate 1 ml samples were filtered on Whatman GF/B filters under vacuum with a Brandel Harvester and washed with 3×3 ml ice-cold buffer.

[8] = In vitro metabolic half-life in rat whole blood; type: in vitro ADME; settings: male, Sprague-Dawley Rat (n = 3), 37°C, read-out: Mean t1/2 Value
Description: (§6) Human whole blood stability experiments were conducted in whole blood from four human donors (male, 18–25 years). Single experiments were conducted with pooled blood from Sprague-Dawley rats (male, 8 weeks, n = 3), New Zealand White rabbits (male, 8–10 weeks, n = 3), Beagle dogs (male, 2–3 years, n = 3) and Cynomolgus monkeys (male, 3–4 years, n = 3). All the blood samples were provided by Xuzhou Medical College. A 1.35-ml aliquot of blood was warmed at 37°C for 5 min and hypnotic (from a 40 mM stock in DMSO solution) was added to a final concentration of 200 µM. After the specified incubation time, a 150-µl sample was removed and the metabolic reaction was quenched using 150-µl acetonitrile. Zero time-point samples were prepared by adding 150-µl acetonitrile (using a 4 mM stock in DMSO) to 150-µl blood before addition of the hypnotic. The quenched samples were centrifuged, and the supernatant was separated and stored at −20°C until analyzed. Hypnotic concentrations in thawed samples were determined by high-performance liquid chromatography using a 3-µm phenyl 4.6×50-mm C-A-25, ACE column with the UV detector set at 240 nm. […] The lower limit of quantitation of this assay is 3 µM and the accuracy within 15% at 10 µM. The metabolic half-lives were quantified from the incubation time-dependent change in drug concentration.

[9] = In vitro metabolic half-life in rabbit whole blood; type: in vitro ADME; settings: male, New Zealand White rabbit (n = 3), 37°C, read-out: Mean t1/2 Value
Description: as §6

[10] = In vitro metabolic half-life in dog whole blood; type: in vitro ADME, Beagle dog; settings: male; whole blood, Beagle dog (n = 3), 37°C, 200 µM; read-out: Mean t1/2 Value
Description: Human whole blood stability experiments were conducted in whole blood from four human donors (male, 18–25 years). Single experiments were conducted with pooled blood from Sprague-Dawley rats (male, 8 weeks, n = 3), New Zealand White rabbits (male, 8–10 weeks, n = 3), Beagle dogs (male, 2–3 years, n = 3) and Cynomolgus monkeys (male, 3–4 years, n = 3). All the blood samples were provided by Xuzhou Medical College. A 1.35-ml aliquot of blood was warmed at 37°C for 5 min and hypnotic (from a 40 mM stock in DMSO solution) was added to a final concentration of 200 µM. After the specified incubation time, a 150-µl sample was removed and the metabolic reaction was quenched using 150-µl acetonitrile. Zero time-point samples were prepared by adding 150-µl acetonitrile (using a 4 mM stock in DMSO) to 150-µl blood before addition of the hypnotic. The quenched samples were centrifuged, and the supernatant was separated and stored at −20°C until analyzed. Hypnotic concentrations in thawed samples were determined by high-performance liquid chromatography using a 3-µm phenyl 4.6×50-mm C-A-25, ACE column with the UV detector set at 240 nm. A linear gradient 20–45% acetonitrile in water with 0.05% trifluoroacetic acid was run for more than 20 min at a flow rate of 1 ml/min. The lower limit of quantitation of this assay is 3 µM and the accuracy within 15% at 10 µM. The metabolic half-lives were quantified from the incubation time-dependent change in drug concentration.

[11] = In vitro metabolic half-life in monkey whole blood; type: in vitro ADME; settings: male, Cynomolgus monkey (n = 3), 37°C, read-out: Mean t1/2 Value
Description: as §6

[12] = In vitro metabolic half-life in human whole blood; type: in vitro ADME; settings: male, Human (n = 4), 37°C, read-out: Mean t1/2 Value
Description: as §6

[13] = Octanol:water partition coefficient; type: physicochemical; settings: water buffered with 10 mm Tris (pH 7.4)
Description: One mg of each hypnotic was added to 10 ml of water buffered with 10 mm Tris (pH 7.4) and 1 ml of octanol. The mixture was stirred overnight and then centrifuged to fully separate the organic and aqueous phases. The relative hypnotic concentration in each phase (i.e., the partition coefficient) was determined by high-performance liquid chromatography as described for blood.

[14] = molecular target: T1, human GABAA receptor α1, β2 and γ2 (CHO-K1 cells) (Homo sapiens, UniProt P14867+P18507+P47870); set-up: method as in PMID 22531340; settings: GABAA receptor electrophysiology; cited from earlier work
T1 construct: expressed in transfected cells; host or cells: CHO-K1 cells, stably transfected
T1 sequence (P14867 28-456): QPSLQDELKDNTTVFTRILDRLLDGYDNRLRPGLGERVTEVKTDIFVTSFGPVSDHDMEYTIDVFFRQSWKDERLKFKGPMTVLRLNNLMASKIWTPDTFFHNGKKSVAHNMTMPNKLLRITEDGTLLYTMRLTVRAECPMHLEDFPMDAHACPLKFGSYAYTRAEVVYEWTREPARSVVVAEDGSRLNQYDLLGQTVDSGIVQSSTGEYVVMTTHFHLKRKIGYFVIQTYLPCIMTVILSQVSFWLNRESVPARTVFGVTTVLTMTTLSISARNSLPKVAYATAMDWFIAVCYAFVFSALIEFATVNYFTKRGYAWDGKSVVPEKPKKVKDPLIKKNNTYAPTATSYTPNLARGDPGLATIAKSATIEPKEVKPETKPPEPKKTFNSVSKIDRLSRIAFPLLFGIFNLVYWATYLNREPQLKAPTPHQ
T1 sequence (P47870 25-512 limits assumed): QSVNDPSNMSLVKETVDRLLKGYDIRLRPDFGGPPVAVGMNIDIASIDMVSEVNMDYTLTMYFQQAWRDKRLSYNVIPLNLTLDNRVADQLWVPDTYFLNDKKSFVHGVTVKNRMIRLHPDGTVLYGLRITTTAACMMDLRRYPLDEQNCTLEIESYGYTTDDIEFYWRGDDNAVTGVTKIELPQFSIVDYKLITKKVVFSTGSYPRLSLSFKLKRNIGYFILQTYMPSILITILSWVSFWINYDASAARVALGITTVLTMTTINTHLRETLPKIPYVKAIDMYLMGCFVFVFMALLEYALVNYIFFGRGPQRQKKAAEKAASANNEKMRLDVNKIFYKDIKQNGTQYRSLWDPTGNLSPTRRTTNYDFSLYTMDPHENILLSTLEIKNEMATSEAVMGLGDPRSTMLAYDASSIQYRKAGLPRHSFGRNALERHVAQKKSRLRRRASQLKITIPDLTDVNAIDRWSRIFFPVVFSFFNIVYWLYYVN
T1 sequence (P18507 40-475): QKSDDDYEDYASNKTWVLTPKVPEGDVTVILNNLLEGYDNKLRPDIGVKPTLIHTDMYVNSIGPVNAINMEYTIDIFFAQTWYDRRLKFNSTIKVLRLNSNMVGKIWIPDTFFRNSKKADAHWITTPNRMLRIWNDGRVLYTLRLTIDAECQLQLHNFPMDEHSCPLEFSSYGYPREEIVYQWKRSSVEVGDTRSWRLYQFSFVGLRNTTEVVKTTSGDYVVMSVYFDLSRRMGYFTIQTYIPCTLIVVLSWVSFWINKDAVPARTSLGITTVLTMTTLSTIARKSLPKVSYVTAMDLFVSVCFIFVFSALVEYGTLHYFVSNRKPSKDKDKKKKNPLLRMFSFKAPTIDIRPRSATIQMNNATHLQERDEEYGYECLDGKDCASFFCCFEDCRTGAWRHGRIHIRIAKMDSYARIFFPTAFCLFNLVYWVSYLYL

Q: With `CCCOC(=O)Cc1ccc(OCC(=O)N(CC)CC)c(OCC)c1` [AZD3043, reference compound] as the molecule, how does the ED50 (mice [1]; Mus musculus, IV over 10 s, 95% confidence limits, read-out: HD50 (the source's name)) read?
A: Its ED50 is 17.6 mg/kg.

Q: What about the Time to walk (mice [1]; 2× HD50) of the same molecule?
A: Its Time to walk is 36.7 ± 6.4 s.

Q: What about the “time to behavioral recovery” value (mice [1]; 2× HD50, rotarod) of the same molecule?
A: The value was 65.5 ± 14.1 s.

Q: What about the “Duration of LORR” value (mice [1]; IV 2× HD50, mean ± SD (n = 10)) of the same molecule?
A: Its value is 63.8 ± 8.5 s.

Q: And the Onset time (mice [1]; IV, mean ± SD (n = 10))?
A: Its Onset time is 5.6 ± 1.2 s.

Q: What about the LD50 (in vivo) of the same molecule?
A: Its LD50 is 98.4 mg/kg.

Q: What about the TI (mice [2]) of the same molecule?
A: The TI was 6.0.

Q: What about the “Duration of LORR” value (rat [3]; 2× HD50 dose, mean ± SD) of the same molecule?
A: The value was 74.2 ± 10.5 s.

Q: What about the Time to walk (rat [3]; 2× HD50 dose, mean ± SD) of the same molecule?
A: Its Time to walk is 38.4 ± 9.6 s.

Q: What about the “time to behavioral recovery” value (rat [3]; 2× HD50 dose, mean ± SD) of the same molecule?
A: Its value is 56.9 ± 12.5 s.

Q: And the HD50 (rat [3]; IV, 95% confidence limits)?
A: The HD50 was 8.2 (7.7∼9.8) mg/kg.

Q: And the TI (rat [4])?
A: The TI was 10.1.

Q: What about the “Duration of LORR” value (rabbits [5]; 2× HD50 dose, mean ± SD) of the same molecule?
A: The value was 221.6 ± 38.8 s.

Q: And the Time to walk (rabbits [5]; 2× HD50 dose, mean ± SD)?
A: The Time to walk was 89.6 ± 7.6 s.

Q: And the HD50 (rabbits [5]; IV, 95% confidence limits)?
A: Its HD50 is 4.8 (4.6∼5.6) mg/kg.

Q: And the TI (rabbits [6])?
A: The TI was 15.6.

Q: And the “time to walk after infusion” value (rabbits [7]; 20-min IV infusion)?
A: Its value is 46.3 ± 11.2 s.

Q: And the “duration of LORR after cessation of infusion” value (rabbits [7]; 20-min IV infusion at half the HD50 per min after 2× HD50 induction)?
A: Its value is 135.6 ± 66.7 s.

Q: And the “GABAA binding (50 µmol) (Mean ± SD), percentage of inhibition” value (GABAA receptor)?
A: Its value is 83.2±7.4%.

Q: What about the half-life at 200 µM [8] of the same molecule?
A: Its half-life at 200 µM is 0.6 ± 0.1 min.

Q: And the half-life at 200 µM [9]?
A: Its half-life at 200 µM is 14.8 ± 3.3 min.

Q: What about the half-life at 200 µM [10] of the same molecule?
A: Its half-life at 200 µM is > 60 min.

Q: And the half-life at 200 µM [11]?
A: The half-life at 200 µM was 56.7 ± 11.9 min.

Q: What about the half-life at 200 µM [12] of the same molecule?
A: The half-life at 200 µM was 28.6 ± 6.2 min.

Q: And the “Octanol:Water Partition (Coefficient ± SD)” value [13]?
A: The value was 466±54.

Q: And the EC50 [14]?
A: Its EC50 is 36 µM.
